Where a chain is given by its changes, count along the chain named. Where two headings read alike, the source gives them in different places.
Legend:
Type in all cases: cell-based
[1] = target: T1, rat P2X2 WT (Rattus norvegicus, UniProt P49653); test: ATP dose–response, two-electrode voltage clamp in Xenopus oocytes, WT
T1 sequence (P49653 1-472): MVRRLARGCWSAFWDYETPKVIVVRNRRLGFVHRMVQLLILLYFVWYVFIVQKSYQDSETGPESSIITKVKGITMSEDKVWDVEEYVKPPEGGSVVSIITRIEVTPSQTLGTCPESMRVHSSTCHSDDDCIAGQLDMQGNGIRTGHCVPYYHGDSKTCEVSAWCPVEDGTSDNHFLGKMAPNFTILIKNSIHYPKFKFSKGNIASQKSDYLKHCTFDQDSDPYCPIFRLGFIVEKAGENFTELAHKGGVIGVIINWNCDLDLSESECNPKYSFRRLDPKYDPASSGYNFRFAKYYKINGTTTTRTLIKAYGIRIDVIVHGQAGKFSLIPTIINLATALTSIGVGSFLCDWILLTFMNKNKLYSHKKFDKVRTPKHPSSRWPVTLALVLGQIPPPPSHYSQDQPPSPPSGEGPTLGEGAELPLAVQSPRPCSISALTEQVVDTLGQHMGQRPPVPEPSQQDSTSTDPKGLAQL

[2] = target: T2, rat P2X2 K308A (Rattus norvegicus, UniProt P49653, K308A); test: ATP activation of the K308A mutant channel; conditions: K308A mutation, very high concentrations of ATP (>3 mM)
T2 sequence (P49653 1-472 K308A): T1 sequence (P49653 1-472) with K308A

[3] = target: T3, rat P2X2 tandem trimer WT–T339S–T339S (Rattus norvegicus, UniProt P49653, T339S)
T3 sequence (P49653 1-472): T1 sequence (P49653 1-472)
T3 sequence (P49653 1-472 T339S) 2: T1 sequence (P49653 1-472) with T339S
T3 sequence (P49653 1-472 T339S) 3: T1 sequence (P49653 1-472) with T339S

[4] = target: T4, rat P2X2 tandem trimer K308A–WT–WT (Rattus norvegicus, UniProt P49653, K308A); test: ATP dose–response, two-electrode voltage clamp in Xenopus oocytes, K308A–WT–WT
T4 sequence (P49653 1-472 K308A): T1 sequence (P49653 1-472) with K308A
T4 sequence (P49653 1-472) 2: T1 sequence (P49653 1-472)
T4 sequence (P49653 1-472) 3: T1 sequence (P49653 1-472)

[5] = target: T5, rat P2X2 tandem trimer D315A–WT–WT (Rattus norvegicus, UniProt P49653, D315A); test: ATP dose–response, two-electrode voltage clamp in Xenopus oocytes, D315A–WT–WT
T5 sequence (P49653 1-472 D315A): T1 sequence (P49653 1-472) with D315A
T5 sequence (P49653 1-472) 2: T1 sequence (P49653 1-472)
T5 sequence (P49653 1-472) 3: T1 sequence (P49653 1-472)

[6] = target: T6, rat P2X2 tandem trimer WT–K308A–WT (Rattus norvegicus, UniProt P49653, K308A); test: ATP dose–response, two-electrode voltage clamp in Xenopus oocytes, WT–K308A–WT
T6 sequence (P49653 1-472) 1: T1 sequence (P49653 1-472)
T6 sequence (P49653 1-472 K308A): T1 sequence (P49653 1-472) with K308A
T6 sequence (P49653 1-472) 3: T1 sequence (P49653 1-472)

[7] = target: T7, rat P2X2 tandem trimer WT–WT–WT (Rattus norvegicus, UniProt P49653); test: ATP dose–response, two-electrode voltage clamp in Xenopus oocytes, WT–WT–WT
T7 sequence (P49653 1-472) 1: T1 sequence (P49653 1-472)
T7 sequence (P49653 1-472) 2: T1 sequence (P49653 1-472)
T7 sequence (P49653 1-472) 3: T1 sequence (P49653 1-472)

[8] = target: T8, rat P2X2 tandem trimer WT–K308A&K69A–WT (Rattus norvegicus, UniProt P49653, K308A/K69A); test: Hetero-assembly test, activation by ATP, WT–K308A&K69A–WT; conditions: 1 mM [ATP], days 1 and 2 after RNA injection
T8 sequence (P49653 1-472) 1: T1 sequence (P49653 1-472)
T8 sequence (P49653 1-472 K69A/K308A): T1 sequence (P49653 1-472) with K69A, K308A
T8 sequence (P49653 1-472) 3: T1 sequence (P49653 1-472)

[9] = target: T9, rat P2X2 tandem trimer WT–WT–K308A (Rattus norvegicus, UniProt P49653, K308A); test: ATP dose–response, two-electrode voltage clamp in Xenopus oocytes, WT–WT–K308A
T9 sequence (P49653 1-472) 1: T1 sequence (P49653 1-472)
T9 sequence (P49653 1-472) 2: T1 sequence (P49653 1-472)
T9 sequence (P49653 1-472 K308A): T1 sequence (P49653 1-472) with K308A

[10] = target: T10, rat P2X2 tandem trimer WT–WT–K308A&K69A (Rattus norvegicus, UniProt P49653, K308A/K69A); test: Hetero-assembly test, activation by ATP, WT–WT–K308A&K69A; conditions: 1 mM [ATP], days 1 and 2 after RNA injection
T10 sequence (P49653 1-472) 1: T1 sequence (P49653 1-472)
T10 sequence (P49653 1-472) 2: T1 sequence (P49653 1-472)
T10 sequence (P49653 1-472 K69A/K308A): T1 sequence (P49653 1-472) with K69A, K308A

[11] = target: T11, rat P2X2 tandem trimer K308A&K69A–WT–WT (Rattus norvegicus, UniProt P49653, K308A/K69A); test: Hetero-assembly test, activation by ATP, K308A&K69A–WT–WT; conditions: 1 mM [ATP], days 1 and 2 after RNA injection
T11 sequence (P49653 1-472 K69A/K308A): T1 sequence (P49653 1-472) with K69A, K308A
T11 sequence (P49653 1-472) 2: T1 sequence (P49653 1-472)
T11 sequence (P49653 1-472) 3: T1 sequence (P49653 1-472)

[12] = target: T12, rat P2X2 tandem trimer T339S–T339S–T339S (Rattus norvegicus, UniProt P49653, T339S)
T12 sequence (P49653 1-472 T339S) 1: T1 sequence (P49653 1-472) with T339S
T12 sequence (P49653 1-472 T339S) 2: T1 sequence (P49653 1-472) with T339S
T12 sequence (P49653 1-472 T339S) 3: T1 sequence (P49653 1-472) with T339S

[13] = target: T13, rat P2X2 D315A (Rattus norvegicus, UniProt P49653, D315A); test: ATP dose–response, two-electrode voltage clamp in Xenopus oocytes, D315A; conditions: at −160 mV
T13 sequence (P49653 1-472 D315A): T1 sequence (P49653 1-472) with D315A

[14] = target: T14, rat P2X2 tandem trimer WT–T339S–WT (Rattus norvegicus, UniProt P49653, T339S); test: ATP dose–response, two-electrode voltage clamp in Xenopus oocytes, WT–T339S–WT
T14 sequence (P49653 1-472) 1: T1 sequence (P49653 1-472)
T14 sequence (P49653 1-472 T339S): T1 sequence (P49653 1-472) with T339S
T14 sequence (P49653 1-472) 3: T1 sequence (P49653 1-472)

[15] = target: T15, rat P2X2 tandem trimer D315A–D315A–WT (Rattus norvegicus, UniProt P49653, D315A); conditions: at −160 mV
T15 sequence (P49653 1-472 D315A) 1: T1 sequence (P49653 1-472) with D315A
T15 sequence (P49653 1-472 D315A) 2: T1 sequence (P49653 1-472) with D315A
T15 sequence (P49653 1-472): T1 sequence (P49653 1-472)

[16] = target: T16, rat P2X2 tandem trimer D315A–D315A–D315A (Rattus norvegicus, UniProt P49653, D315A); conditions: at −160 mV
T16 sequence (P49653 1-472 D315A) 1: T1 sequence (P49653 1-472) with D315A
T16 sequence (P49653 1-472 D315A) 2: T1 sequence (P49653 1-472) with D315A
T16 sequence (P49653 1-472 D315A) 3: T1 sequence (P49653 1-472) with D315A

`Nc1ncnc2c1ncn2[C@@H]1O[C@H](COP(=O)(O)OP(=O)(O)OP(=O)(O)O)[C@@H](O)[C@H]1O` [ATP, adenosine triphosphate] was tested, and the EC50 [1] was 14.5 ± 1.2 µM, the Hill coefficient ([1]; WT, at −160 mV, Xenopus oocytes, mean ± SEM) was 1.7 ± 0.2 and the “channel response to ATP” value [2] was “unresponsive”. It also gave an EC50 [3] of 6 ± 0.4 µM, a Hill ([3]; WT–T339S–T339S, at −160 mV) of 1.5 ± 0.2 and an EC50 [4] of 42.3 ± 2.2 µM. For the same molecule, the Hill coefficient ([4]; K308A–WT–WT, at −160 mV, mean ± SEM) was 1.7 ± 0.18, the EC50 [5] was 6.02 ± 1.1 µM and the Hill ([5]; D315A–WT–WT, at −160 mV) was 1.4 ± 0.1. The EC50 [6] was 22.9 ± 1.8 µM, the EC50 [7] was 19.1 ± 2 µM and the “activation in response to ATP” value [8] was “did not show any prominent activation”. For the same molecule, the EC50 [9] was 33.3 ± 1.65 µM, the Hill coefficient ([9]; WT–WT–K308A, at −160 mV, mean ± SEM) was 1.6 ± 1.4 and the “activation in response to ATP” value [10] was “did not show any prominent activation”. The “activation in response to ATP” value [11] was “did not show any prominent activation”, the EC50 [12] was 2.4 ± 0.4 µM and the Hill ([12]; T339S–T339S–T339S, at −160 mV) was 1.5 ± 0.3. The EC50 ([13]; EC50 (1), first phase of biphasic dose–response) was 1.2 ± 0.6 µM, the EC50 ([13]; EC50 (2), second phase of biphasic dose–response) was 89.1 ± 1.48 µM and the “Hill (1)” value ([13]; first phase) was 2.4 ± 0.7. For the same molecule, the EC50 [14] was 12.2 ± 1.2 µM, the Hill ([14]; WT–T339S–WT, at −160 mV) was 1.5 ± 0.9 and the EC50 ([15]; EC50 (1), first phase) was 3.15 ± 0.9 µM. The EC50 ([15]; EC50 (2), second phase) was 794 ± 12 µM, the EC50 ([16]; EC50 (1), first phase) was 1.5 ± 0.8 µM and the EC50 ([16]; EC50 (2), second phase) was 130 ± 5 µM. The “Hill (1)” value ([16]; first phase) was 3.7 ± 0.6.
